Patent publication US6444668B1 (Wyeth, priority 1999, dated 2002)

Structure (SMILES) | melting point
CC1(C)OC(=O)Nc2ccc(-c3cc([N+](=O)[O-])cc([N+](=O)[O-])c3)cc21 | 297 to 298 °C
CC1OC(=O)Nc2ccc(-c3cccc(Cl)c3)cc21 (stereo not shown) [Example 9, 6-(3-Chloro-phenyl)-4-methyl-1,4-dihydro-benzo[d][1,3]oxazin-2-one] | 155 to 156 °C
CCC1OC(=O)Nc2ccc(-c3cccc(Cl)c3)cc21 (stereo not shown) [Example 10, 6-(3-Chloro-phenyl)-4-ethyl-1,4-dihydro-benzo[d][1,3]oxazin-2-one] | 146 to 148 °C
O=C1Nc2ccc(-c3cccc(Cl)c3)cc2C(c2ccccc2)O1 (stereo not shown) [Example 11, 6-(3-Chloro-phenyl)-4-phenyl-1,4-dihydro-benzo [d][1,3]oxazin-2-one] | 177 to 178 °C
CCC1(CC)NC(=O)Oc2ccc(-c3cccc(Cl)c3)cc21 [Example 25, 6-(3-Chlorophenyl)-4,4-diethyl-1,4-dihydrobenzo[d][3,1]oxazin-2-one] | 150 to 151 °C
O=C1Nc2ccc(-c3cccc(Cl)c3)cc2C2(CCCC2)O1 [Example 31, 6-(3-Chlorophenyl)-spiro-[4H-3,1-benzoxazine-4,1′-cyclopentane]-2(1H)-one] | 140 to 145 °C
O=C1Nc2ccc(-c3cccc([N+](=O)[O-])c3)cc2C2(CCCCC2)O1 [Example 32, 6-(3—Nitrophenyl)-spiro[4H-3,1-benzoxazine-4,1′-cyclohexan]-2(1H)-one] | 245 to 246 °C
CC1(c2ccccc2)OC(=O)Nc2ccc(-c3cccc(Cl)c3)cc21 (stereo not shown) [Example 39, 6-(3-Chlorophenyl)-4-methyl-4-phenyl-1,4dihydro-benzo[d][1,3]oxazin-2-one] | 179 to 180 °C
CC1(Cc2ccccc2)OC(=O)Nc2ccc(-c3cccc(Cl)c3)cc21 (stereo not shown) [Example 40, 4-Benzyl-6-(3-chloro-phenyl)-4-methyl-1,4-dihydro-benzo[d][1,3]oxazin-2-one] | 187 to 188 °C
CC#CC1(C2CC2)OC(=O)Nc2ccc(-c3cccc(Cl)c3)cc21 (stereo not shown) [Example 42, 6-(3-Chloro-phenyl)-4-cyclopropyl-4-propyn-1-yl-1,4-dihydro-benzo [d][1,3]oxazin-2-one] | 178 to 179 °C
CC#CC1(C#CC)OC(=O)Nc2ccc(-c3cccc(Cl)c3)cc21 [Example 44, 6(3-Chloro-phenyl)-4,4dipropyn-1-yl-1,4dihydrobenzo[d][1,3]oxazin-2-one] | 151 °C (dec.)
CN1C(=O)OC(C)(C)c2cc(-c3cc(F)cc(Br)c3)ccc21 [Example 45, 6-(3-Bromo-5fluorophenyl)-1,4,4-trimethyl-1,4-dihydrobenzo[d][1,3]oxazin-2-one] | 157 to 158 °C
N#Cc1cc(-c2ccc3c(c2)C(C2CC2)(C2CC2)OC(=O)N3)cs1 [Example 53, 4-(4,4-Dicyclopropyl-2-oxo-1,4-dihydro-2H-benzo[d][1,3]oxazin-6yl)-thiophene-2-carbonitrile] | 244 to 245 °C
CC1(C)OC(=O)Nc2ccc(-c3cc(Br)cc(OC(F)(F)F)c3)cc21 [Example 57, 6-(3-Bromo-5-trifluoromethoxy-Phenyl)-4,4-dimethyl-1,4-dihydrobenzo[d][1,3]-oxazin-2-one] | 214 to 216 °C
CC1(C)OC(=O)Nc2ccc(-c3cc(C#N)cc(OC(F)(F)F)c3)cc21 [Example 59, 3-(4,4-Dimethyl-2-oxo-1,4-dihydro-2H-benzo[d][1,3]oxazin-6-yl)-5-trifluoromethoxy-benzonitrile] | 227 to 228 °C
CC1(C)OC(=O)Nc2ccc(-c3cc(C(F)(F)F)cc(C(F)(F)F)c3)cc21 [Example 62, 6-(3,5-Bis-trifluoromethyl-phenyl)-4,4-dimethyl-1,4-dihydrobenzo[d][1,3]oxazin-2-one] | 258 to 260 °C
CCOC(OCC)N1C(=O)OC(C)(C)c2cc(-c3cc(F)cc(C#N)c3)ccc21 [Example 66, 3(1-Diethoxymethyl-4,4-dimethyl-2-oxo-1,4-dihydro-2H-benzo[d][1,3]oxazin-6-yl)-5-fluoro-benzonitrile] | 123 to 124 °C
COCN1C(=O)OC(C)(C)c2cc(-c3cc(F)cc(C#N)c3)ccc21 [Example 67, 3-Fluoro-5(1-methoxymethyl-4,4-dimethyl-2-oxo-1,4-dihydro-2H-benzo[d][1,3]oxazin-6-yl)-benzonitrile] | 169 to 171 °C
CC(C)(C)OC(=O)N1C(=O)OC(C)(C)c2cc(-c3cc(F)cc(C#N)c3)ccc21 [Example 86, 6-(3-Cyano-5fluoro-phenyl)-4,4-dimethyl-2oxo-4H-benzo[d][1,3]oxazine-1-carboxylic acid tert-butyl ester] | 139 to 140 °C
CC1(C)OC(=O)Nc2c(F)cc(-c3csc(C#N)c3)cc21 [Example 88, 4-(8-Fluoro-4,4-dimethyl-2-oxo-1,4-dihydro-2H-benzo[d][1,3]oxazin-6-yl)-thiophene-2-carbonitrile] | 250 to 251 °C
CC1(C)OC(=O)Nc2c(F)cc(-c3cc(F)cc(C#N)c3)cc21 [Example 89, 3-Fluoro-5-(8-fluoro-4,4dimethyl-2-oxo-1,4-dihydro-2H-benzo[d][1,3]oxazin-6-yl)-benzonitrile] | 256 to 257 °C
CC1(C)OC(=O)Nc2ccc(-c3cc(C#N)cs3)cc21 [Example 90, 5-(4,4-Dimethyl-2-oxo-1,4-dihydro-2H-benzo[d][1,3]oxazin-6-yl)thiophene-3-carbonitrile] | 255 to 260 °C
CC(C)(C)OC(=O)n1c(-c2ccc3c(c2)C(C)(C)OC(=O)N3)ccc1[N+](=O)[O-] [Example 95, 2-(4,4Dimethyl-2-oxo-1,4-dihydro-2H-benzo[d][1,3]oxazin-6-yl)-5-nitro-pyrrole-1-carboxylic acid tert-butyl ester] | 125 °C

The next lines start with the values.

melting point | Structure (SMILES)
240 to 242 °C | CC1(C)OC(=O)Nc2ccc(-c3cccc(C#C[Si](C)(C)C)c3)cc21
164 to 165 °C | COc1cccc(-c2ccc3c(c2)C(C)(C)OC(=O)N3)c1 [Example 6, 6-(3-Methoxy-phenyl)-4,4dimethyl-1,4-dihydro-benzo[d][1,3]-oxazin-2-one]
181 to 182 °C | CC1(C)OC(=O)Nc2ccc(-c3ccccc3Cl)cc21 [Example 7, 6-(2-Chloro-phenyl)-4,4-dimethyl-1,4-dihydro-benzo[d][1,3]oxazin-2-one]
255 to 257 °C | CC1(C)OC(=O)Nc2ccc(-c3ccc(Cl)cc3)cc21 [Example 8, 6-(4-Chloro-phenyl)-4,4-dimethyl-1,4-dihydro-benzo[d][1,3]-oxazin-2-one]
244 to 245 °C | CC1(C)OC(=O)Nc2ccc(-c3cccc([N+](=O)[O-])c3)cc21 [Example 13, 4,4Dimethyl6-(3-nitrophenyl)-1,4dihydrobenzo[d][1,3]oxazin-2-one]
128 to 129 °C | C=CCC1(C)OC(=O)Nc2ccc(-c3cccc(Cl)c3)cc21 (stereo not shown) [Example 36, 4-Allyl-6-(3-chlorophenyl)-4-methyl-1,4-dihydro-benzo[d][1,3]oxazin-2-one]
158 to 159 °C | CC1(C2CC2)OC(=O)Nc2ccc(-c3cccc(Cl)c3)cc21 (stereo not shown) [Example 41, 6(3-Chloro-phenyl)-4-cyclopropyl-4-methyl-1,4-dihydro-benzo [d][1,3]oxazin-2-one]
167 to 168 °C | COc1cccc(-c2ccc3c(c2)NC(=O)OC3(C)C)c1 [Example 49, 7-(3-Methoxy-phenyl)-4,4-dimethyl-1,4-dihydro-benzo[d][1,3]-oxazin-2-one]
156 to 157 °C | CC1(C)OC(=O)Nc2ccc(-c3cccc(C(=O)c4ccccc4)c3)cc21 [Example 51, 6-(3-Benzoyl-phenyl)-4,4-dimethyl-1,4dihydro-benzo[d][1,3]-oxazin-2-one]
238 to 240 °C | CC1(C)OC(=O)Nc2ccc(-c3cccc(-c4nnn[nH]4)c3)cc21 [Example 52, 4,4-Dimethyl-6-[3-(1H-tetrazol-5-yl)-phenyl]-1,4dihydrobenzo[d][1,3]oxazin-2-one]
218 to 219 °C | CC1(C)OC(=O)Nc2ccc(-c3cc(F)cc(F)c3)cc21 [Example 60, 6-(3,5-difluoro-phenyl)-4,4-dimethyl-1,4-dihydrobenzo-[d][1,3]oxazin-2-one]
254 to 255 °C | COc1cc(C#N)cc(-c2ccc3c(c2)C(C)(C)OC(=O)N3)c1 [Example 63, 3-(4,4-Dimethyl-2-oxo-1,4-dihydro-2H-benzo[d][1,3]oxazin-6-yl)-5-methoxy-benzonitrile]
246 to 248 °C | CC1(C)OC(=O)Nc2c(F)cc(-c3ccc(F)c(Cl)c3)cc21 [Example 71, 6-(3-Chloro-4-fluoro-phenyl)-8-fluoro-4,4-dimethyl-1,4-dihydrobenzo[d][1,3]-oxazin-2-one]
171 to 172 °C | C#Cc1cccc(-c2ccc3c(c2)C(C)(C)OC(=O)N3)c1 [Example 74, 6-(3-Ethynyl-phenyl)-4,4-dimethyl-1,4dihydro-benzo[d][1,3]-oxazin-2-one]
256 to 257 °C | CC1(C)OC(=O)Nc2ccc(-c3cc(Cl)cc(C#N)c3)cc21 [Example 78, 3-Chloro-5(4,4-dimethyl-2-oxo-1,4-dihydro-2H-benzo[d][1,3]oxazin-6-yl)-benzonitrile]
223 to 224 °C | CC1(C)OC(=O)Nc2ccc(-c3cccc(-c4nccs4)c3)cc21 [Example 81, 4,4-Dimethyl-6(3-thiazol-2-yl-phenyl)-1,4-dihydro-benzo[d][1,3]oxazin-2-one]
181 to 182 °C | COc1cc(F)cc(-c2ccc3c(c2)C(C)(C)OC(=O)N3)c1 [Example 82, 6-(3-Fluoro-5-methoxy-phenyl)-4,4-dimethyl-1,4-dihydro-benzo[d][1,3]oxazin-2-one]
202 °C (dec.) | CC1(C)OC(=O)Nc2ccc(-c3ccc[nH]3)cc21 [Example 97, 4,4-Dimethyl-6-(1H-pyrrol-2yl)-1,4-dihydro-benzo[d][1,3]-oxazin-2one]
230 °C | Cn1cccc1-c1ccc2c(c1)C(C)(C)OC(=O)N2 [Example 98, 4,4-Dimethyl-6-(1-methyl-1H-pyrrol-2-yl)-1,4-dihydro-benzo[d][1,3]oxazin-2-one]
180 to 185 °C | Cn1c(-c2ccc3c(c2)C(C)(C)OC(=O)N3)ccc1[N+](=O)[O-] [Example 99, 4,4-Dimethyl-6-(1-methyl-5-nitro-1H-pyrrol-2-yl)-1,4-dihydro-benzo [d][1,3]oxazin-2-one]
